Measurements taken from patent publication US20050180954A1, “Drug for treating bone disorders” (priority 1995, published 2005).

Key:
[1] = system: osteoclast like cells from bone marrow cells of mice of ddy strain; test: Formation of osteoclast like cells from bone marrow cells of mice of ddy strain; format: cell-based, mouse
Method: Bone marrow cells were prepared in accordance with the method by Takahashi et al (Takahashi, N. et al., Endocrinology, 122, 1373, 1988). Male mice of ddy strain of 7 weeks old were exanguinated to death under ether anesthesia and the femur and the tibia of hind legs were collected from each mouse. The connective tissues on the surfaces of the bones were carefully removed, and both ends of each bone were cut off with scissors. The bone marrow cells were suspended in α-Minimum Essential Medium (α-MEM, Nissui Pharmaceuticals Co.) containing 10% pre-colostrum new born calf serum (Mitsubishi Chemical, hereinafter referred to as “JCS” for short) and the suspension was flushed out through a 25 G needle attached to a syringe to collect the suspension in a centrifugal tube. The collected suspension was washed by centrifugation in the same medium at 2000 rpm at 4° C. for 5 minutes. The precipitated cells were dispersed in the above-mentioned medium and the washing by centrifugation was repeated twice, thereby preparing bone marrow cells. Murine IFN-α (hereinafter referred to as “MuIFNα” for short), Lot. B13010, 106 units/ml/vial (Calbiochem-Novabiochem International, San Diego, Calif.), murine IFN-β (hereinafter referred to as “MuIFNβ” for short), Lot M-0034, 10 units/ml/vial (Toray Industries, Inc.) and murine IFNγ (hereinafter referred to as “MuIFNγ” for short), Lot 254F3, 2.06×10^6 units/ml (Genentech, Calif.) were respectively dissolved in 10% JCS-containing α-MEM (Nissui Pharmaceuticals Co.) to the desired concentrations. Active vitamin D3 ([…], Wako Pure Chemical Industries, Ltd., hereinafter referred to as “Vit D3” for short) was dissolved in argon-saturated ethanol, and the obtained solution was diluted so as to attain the final ethanol concentration of 0.1% in all of the culture systems.
The number of viable bone marrow cells was counted using tripam blue dye exclusion test and the bone marrow cells were diluted with α-MEM containing 10% JCS, 10^−8M Vit D3, 10^−7 M dexamethasone to a population density of 1.5×10^6 cells/ml, followed by placing the resulting suspension in each well in 24-well plates in an amount of 0.45 ml/well. To each well, 50 μl of the medium containing varying concentration of IFN was added to make the volume to 0.5 ml/well and culturing was begun. At every three days, 0.4 ml of the culture medium was removed from each well and 0.4 ml of fresh medium (the above-mentioned medium containing the respective concentration of IFN) was added. On Day 8 from the beginning of the culturing, the medium was removed and the cells were fixed with mixed solution of ethyl alcohol and diethyl ether (1:1) and the cells were stained with tartrate resistant acid phosphatase (TRAP), followed by counting TRAP positive multinuclear cells with a phase contrast microscope. […] The inhibition effect of IFNγ was stronger than that of IFNβ. That is, the inhibition concentration IC50 of IFNγ was not more than 0.1 units/ml, and that of IFNβ was 0.2 units/ml.
The effects of the three murine IFNs, that is, MuIFNβ, γ and α in terms of abilities to inhibit formation of osteoclast like cells from bone marrow cells in mice of ddy strain were compared. The test was carried out as in Example 1. All of the murine IFNs inhibited the formation of osteoclast like cells, and the effect was strong in the order of γ, β and α. […] Thus, the activity of IFNα to inhibit formation of osteoclasts was about 1/20 of that of IFNβ and about not more than 1/100 of that of IFNγ.

[2] = Osteoporosis model mice: change in body weight; format: in vivo, mouse; conditions: administration continuously for 4 weeks at a dose exhibiting the therapeutic effect
Method: Female mice of ddy strain of 8 weeks old were divided into 5 groups and experiment was carried out. Bilateral ovariectomy was performed on the mice in 3 groups and sham operation alone was performed on the mice in 2 groups. Thereafter, the mice were raised with normal diet for 1 month, thereby making the state of osteoporosis in the ovariectomized groups. In this model, it is known that the mice become the state of osteoporosis 2 to 3 weeks after the ovariectomy (T. Hosaka et al., ANITEX, Vol. 5, 243, 1992; Miyaura, C. et al., J. Bone Mineral Res., 10, 1365, 1995). From the third weeks from the ovariectomy, murine IFN was subcutaneously administered (100 μl/head/time) once per day, totally 25 times. On Day 30 from the beginning of administration, under ether anesthesia, body weight was measured, blood was collected, and femur was collected and dry bone weight thereof was measured for each mouse.
It is well-known that the increase and decrease in the amount of urinary D-Pyr excreted in urine, which is a crosslinked substance of bone collagen, is an excellent marker reflecting the degree of degradation of bone collagen, that is, the degree of bone resorption (C. P. Jerome et al., Bone and Mineral, 19, 117-125, 1992). For measurement of urinary D-Pyr, a commercially available kit (PYRILINKS-D Assay, METRA BIOSYSTEMS) was used. […]

MC3T3-E1 cells = test: Mineralization of murine osteoblasts, Von Kossa stain (in vitro multiple administration); format: cell-based, mouse; conditions: MC3T3-E1, twice administration, Von Kossa on Day 9
Method: MC3T3-E1 cells were placed in each well in 24-well plates in an amount of 30,000 cells/well and cultured to confluency. The medium was removed and fresh α-MEM containing 10% JCS, 50 μg/ml of L-ascorbic acid and 10 mM β-glycerophosphate was added in an amount of 0.9 ml/well, followed by adding 0.1 ml/well of medium containing varying concentration of IFN. The medium was replaced with the medium containing the respective concentration of IFN every 4 days. On Day 9 from the first treatment with IFN, Von Kossa stain was performed to visualize the calcified foci.

- inhibition concentration IC50 of formation of osteoclast like cells ([1]; Example 1, Vit D3 + dexamethasone, Day 8, TRAP positive multinuclear cells): 0.2 units/ml
- IC50 of inhibition of formation of osteoclast like cells ([1]; Example 8 comparison of three murine IFNs): about 0.9 units/ml
Substance: MuIFNβ: murine interferon β, Lot M-0034, prepared by Toray Industries, Inc. by genetic engineering technique
- inhibition of formation of osteoclast like cells ([1]; Example 1, Day 8, TRAP positive multinuclear cells): strongly inhibited formation of osteoclast like cells
- change in body weight [2]: no problematic change in body weight was observed in any group
- number of calcified foci and intensity of staining (MC3T3-E1 cells): dose dependently increased
